Data set [1] concerns the target T1, full-length beta-Catenin (Uniprot ID P35222) (Homo sapiens, UniProt P35222).
T1 construct: 10 nM full-length beta-Catenin (Uniprot ID P35222)
T1 sequence (P35222 1-781): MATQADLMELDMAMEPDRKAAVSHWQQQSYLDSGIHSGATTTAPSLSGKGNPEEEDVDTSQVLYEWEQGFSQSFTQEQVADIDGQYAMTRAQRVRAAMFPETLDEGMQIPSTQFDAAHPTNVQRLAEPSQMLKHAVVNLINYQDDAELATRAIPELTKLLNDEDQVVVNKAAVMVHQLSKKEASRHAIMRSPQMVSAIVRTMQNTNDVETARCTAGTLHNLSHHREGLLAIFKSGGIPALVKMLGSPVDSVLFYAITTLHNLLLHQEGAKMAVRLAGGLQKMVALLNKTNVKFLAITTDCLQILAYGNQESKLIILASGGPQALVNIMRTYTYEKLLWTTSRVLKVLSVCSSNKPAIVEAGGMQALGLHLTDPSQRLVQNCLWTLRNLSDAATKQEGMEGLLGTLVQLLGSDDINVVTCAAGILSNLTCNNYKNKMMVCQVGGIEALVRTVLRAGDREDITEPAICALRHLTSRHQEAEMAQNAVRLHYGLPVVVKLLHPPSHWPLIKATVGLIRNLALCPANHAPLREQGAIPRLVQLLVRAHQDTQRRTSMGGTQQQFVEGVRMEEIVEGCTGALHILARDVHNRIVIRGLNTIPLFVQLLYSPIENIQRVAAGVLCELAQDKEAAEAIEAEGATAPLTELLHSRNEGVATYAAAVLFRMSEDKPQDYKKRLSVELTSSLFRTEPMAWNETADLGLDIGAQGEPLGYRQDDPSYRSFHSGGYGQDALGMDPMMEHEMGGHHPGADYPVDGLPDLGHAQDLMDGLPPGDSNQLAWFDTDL
In words: Fluorescence polarization IC50 (beta-catenin / 5FAM-TCF4 10-53 competition). It is filed as binding. The following applies: read-out: beta-Catenin FP IC50. (In general: Polarisation of emitted light reports the rotation of a fluorescent probe.)

The nature of a further data set: CHI Log D procedure. The following applies: pH 7.4, CHI Log D. Format: physicochemical.
A further data set is described as follows: Solubility in PBS. Format: physicochemical. The following applies: Solubility (uM). The essentials: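 The PBS solution was ultracentrifuged and the supernatant analyzed by HPLC. Its peak area was divided by that of a 50 μM peptide DMSO reference injection and multiplied by 50 uM to give solubility.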
The target in data set [2] is T2, beta-catenin/TCF4 engagement (Homo sapiens, UniProt P35222).
T2 construct: expressed in transfected cells; host or cells: HEK293
T2 sequence (P35222 1-781): T1 sequence (P35222 1-781)
The data set can be described thus: Nano-BRET target engagement assay (B-cat-Halo & TCF4-Luc in HEK293 cells). The following applies: absolute IC50; read-out: NanoBRET Abs IC50. It is filed as cell-based. On the technique in general: BRET reads energy transfer from a luciferase to a nearby fluorophore.

Data set [3] concerns TCF/LEF luciferase Reporter in DLD1 cells. The data set can be described thus: TCF reporter assay (DLD1 TCF/LEF luciferase reporter, Bright-Glo). Format: cell-based. The following applies: for DLD1 TCF c2 BrightGlo % Inhibition: replicates. The essentials:
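DLD1 cells stably carrying a TCF/LEF luciferase reporter were plated at 5000 cells/well in RPMI + 4% FBS and treated overnight with a 1:2 compound dilution series. Bright-Glo luminescence read on day 3; viability by CellTiter-Glo. Absolute IC50 determined.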
(A reporter such as luciferase makes a cellular process visible.)

Where [4] appears, read: absolute IC50, read-out: DLD1 reporter assay Abs IC50.
The mark [5] stands for this setting: read-out: DLD1 4% Abs IC50, DLD1 4%.

pIC50: −log10 of the molar value. ≈ marks a conversion by molar mass, not a printed value. Where “and” joins values, the source holds several entries; their conditions need not be identical. Identical values can stand only once. Like-named read-outs stand apart in the source and are kept apart here.

The pIC50 is −log10 of the IC50, conventionally taken in molar units. One may read the chromatographic logD as a lipophilicity value derived from retention on a column. Low values mean lower lipophilicity, high ones higher lipophilicity. One may read the Solubility as the concentration that dissolves in the medium under given conditions. A lower Solubility goes with little dissolved substance. For `CC(=O)N1CCC[C@]12CC=CCCCC1(CCCC=CCCCCCC[C@@](C)(C(=O)N[C@@H](Cc3ccccc3Cl)C(=O)N[C@@H](Cc3csc4ccccc34)C(=O)N[C@@H](CCO)C(N)=O)NC(=O)[C@H](CCO)NC(=O)[C@H](Cc3ccccc3)NC(=O)[C@H](C)NC(=O)[C@H](C)NC(=O)[C@H](CN(CC(=O)O)CC(F)(F)F)NC(=O)[C@H](CC(=O)O)NC1=O)NC(=O)[C@H](CC(C)(C)C)NC(=O)[C@H](CC(=O)O)NC2=O` (stereo partly drawn) [I-1000, Ac-PL3-Asp-Npg-B5-Asp-TfeGA-Ala-Ala-Phe-Hse-S8-2C1F-BztA-Hse-NH2], the negative logarithm of the IC50 (pIC50) in data set [1] is 7.74; in data set [2], 4.62; in data set [3] (setting [4]) it was 5.10; in data set [3] (setting [5]), 5.72. Moreover, the chromatographic logD in “CHI Log D procedure” was found to be 2.97. For the same molecule, the concentration in solution in the data set “Solubility in PBS” (Solubility) came to 44 µM (≈ 86.9 µg/mL). In addition, the “DLD1 TCF c2 BrightGlo % Inhibition” value in data set [3] (first dose = 20 uM (plate map), 20 µM) is 79.5% (2×) and 79.7%; in data set [3] (0.625 µM), −3.4% and 2.4% and 4.9%; in data set [3] (1.25 µM), −0.6% and −1.2% and 1.5%; in data set [3] (2.5 µM), 5.5% and 10.2% and 12.4%; in data set [3] (10 µM), 57.0% and 59.8% and 61.4%; in data set [3] (third dose = 5 uM (plate map), 5 µM), 25.7% and 29.9% and 32.3%.
With `CC(=O)N1CCC[C@]12CC=CCCCC1(CCCC=CCCCOC(=O)N3CC[C@@](C(=O)N[C@@H](Cc4ccccc4Cl)C(=O)N[C@@H](Cc4csc5ccccc45)C(=O)N[C@@H](CCC(N)=O)C(N)=O)(C3)NC(=O)[C@H](CC(N)=O)NC(=O)[C@H](Cc3ccccc3)NC(=O)[C@H](CO)NC(=O)[C@H](C)NC(=O)[C@H](CN(CC(=O)O)CC(F)(F)F)NC(=O)[C@H](CC(=O)O)NC1=O)NC(=O)[C@H](CC(C)(C)C)NC(=O)[C@H](CC(=O)O)NC2=O` (stereo partly drawn) [I-1004, Ac-PL3-Asp-Npg-B5-Asp-TfeGA-Ala-Ser-Phe-Asn-PyrS2-2C1F-BztA-Gln-NH2], the figures for the pIC50 in data set [1], in data set [2] and in data set [3] (setting [4]) were 8.30, 4.97 and less than 4.70, respectively. The chromatographic logD in “CHI Log D procedure” is 2. In the data set “Solubility in PBS”, this molecule returned a Solubility of 47 µM (≈ 97.5 µg/mL).
`CC(=O)N1CCC[C@]12CC=CCCCC1(CCCC=CCCCOC(=O)N3CC[C@@](C(=O)N[C@@H](Cc4ccccc4Cl)C(=O)N[C@@H](Cc4csc5ccccc45)C(=O)N[C@@H](CCC(N)=O)C(N)=O)(C3)NC(=O)[C@H](CC(N)=O)NC(=O)[C@H](Cc3ccccc3)NC(=O)[C@H](C)NC(=O)[C@H](CC(C)C)NC(=O)[C@H](CN(CC(=O)O)CC(F)(F)F)NC(=O)[C@H](CC(=O)O)NC1=O)NC(=O)[C@H](CC(C)(C)C)NC(=O)[C@H](CC(=O)O)NC2=O` (stereo partly drawn) [I-1007, Ac-PL3-Asp-Npg-B5-Asp-TfeGA-Leu-Ala-Phe-Asn-PyrS2-2C1F-BztA-Gln-NH2]: the pIC50 in data set [1] is 8.22; in data set [2], 4.60; in data set [3] (setting [4]) it was 5.48. Besides, the chromatographic logD in the data set “CHI Log D procedure” is 2.45. In addition, the concentration in solution in the data set “Solubility in PBS” (Solubility) was 18 µM (≈ 37.8 µg/mL).
Take `CC(=O)N1CCC[C@]12CC=CCCCC1(CCCC=CCCCOC(=O)N3CC[C@@](C(=O)N[C@@H](Cc4ccccc4Cl)C(=O)N[C@@H](Cc4csc5ccccc45)C(=O)N[C@@H](CCC(N)=O)C(N)=O)(C3)NC(=O)[C@H](CC(N)=O)NC(=O)[C@H](Cc3ccccc3)NC(=O)[C@H](C)NC(=O)[C@H](Cc3ccccc3)NC(=O)[C@H](CN(CC(=O)O)CC(F)(F)F)NC(=O)[C@H](CC(=O)O)NC1=O)NC(=O)[C@H](CC(C)(C)C)NC(=O)[C@H](CC(=O)O)NC2=O` (stereo partly drawn) [I-1008, Ac-PL3-Asp-Npg-B5-Asp-TfeGA-Phe-Ala-Phe-Asn-PyrS2-2C1F-BztA-Gln-NH2]: the pIC50 in data set [1] is 8.05; in data set [2], 4.85; in data set [3] (setting [4]), 4.89; in data set [3] (setting [5]) it was 5.33. The chromatographic logD in the data set “CHI Log D procedure” came out at 2.43. This molecule also registered a Solubility in the data set “Solubility in PBS” of 34 µM (≈ 72.5 µg/mL).

These data come from patent US20240116985A1, “STAPLED PEPTIDES AND METHODS THEREOF” (priority 2020, published 2024).
